The text below walks through data of US9724334B1, “Method for treating a neurodegenerative disease or depression comprising administering derivatives of 2-amino-2-(1-dodecyl-1H-1,2,3-triazol-4-yl)propane-1,3-diol” (Kyungpook National University Industry-Academic Cooperation …, priority 2016, dated 2017).

Experiment [1] concerns the target T1, ASM (acid sphingomyelinase) (Mus musculus, UniProt Q04519).
T1 construct: from tissue; host or cells: plasma and brain tissue of APP/PS1 transgenic mice (C57BL/6 background)
T1 sequence (Q04519 45-627): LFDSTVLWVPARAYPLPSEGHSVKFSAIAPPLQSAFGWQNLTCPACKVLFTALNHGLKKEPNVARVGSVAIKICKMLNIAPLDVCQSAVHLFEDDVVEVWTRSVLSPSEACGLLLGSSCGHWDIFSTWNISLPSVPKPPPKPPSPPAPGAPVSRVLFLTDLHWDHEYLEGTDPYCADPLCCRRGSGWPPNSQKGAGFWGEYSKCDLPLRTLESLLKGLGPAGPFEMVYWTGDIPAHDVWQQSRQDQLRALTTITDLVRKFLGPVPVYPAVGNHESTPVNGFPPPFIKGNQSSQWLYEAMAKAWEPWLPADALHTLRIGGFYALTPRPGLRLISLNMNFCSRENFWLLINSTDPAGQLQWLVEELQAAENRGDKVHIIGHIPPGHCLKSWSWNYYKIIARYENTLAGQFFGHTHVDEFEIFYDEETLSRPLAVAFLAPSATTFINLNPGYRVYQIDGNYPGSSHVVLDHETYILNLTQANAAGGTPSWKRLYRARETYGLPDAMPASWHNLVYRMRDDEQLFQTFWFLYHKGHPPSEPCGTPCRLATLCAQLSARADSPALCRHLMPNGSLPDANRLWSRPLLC
The experiment in a line: ASM concentration levels in plasma and brain tissue of APP/PS1 mice after feeding via drinking water. To be noted: 100 mg/kg/day via drinking water; for ASM concentration level in brain tissues / ASM concentration level in plasma: 9.5 month-old APP/PS1 mice, versus unfed APP/PS1 mice. Type of experiment: in vivo. From the text:
IACUC (Kyungpook National University Institutional Animal Care and Use Committee) approved the present mouse experiment. A transgenic mouse line overexpressing APPswe (hAPP695swe) or PS1 (presenilin-1M146V) was used based on C57BL/6 mouse (Charles River, UK) (hereinafter, APP mouse: APPswe-overexpressing mouse, PS1 mouse: presenilin-1M146V overexpressing mouse; GlaxoSmithKline). To confirm the therapeutic effect of the novel ASM inhibitory compounds, the novel ASM inhibitory compound or AMI were fed via drinking water at a dose of 100 mg/kg/day to mice at 5.5 months of age. Three months after the feeding, behavioral analysis on the mice was performed, followed by sampling of mouse brain tissues (FIG. 3). The concentration levels of ASM were measured as follows. Specifically, a microliter mouse plasma, brain tissue and 3 μl of fibroblast samples were mixed with ASM activity buffer and stored at 37° C. 114 μl of ethanol was added to terminate the hydrolysis reaction, followed by centrifugation. 30 μl of the supernatant was transferred to a glass vial, of which 5 μl was applied to the UPLC system. The ASM concentration levels were quantified by comparison with Bodipy (aminoacetaldehyde) conjugated with sphingomyelin and ceramide. Extraction and quantification of the sphingomyelin and ceramide were performed by extracting lipids from known method samples and resuspending the dried lipid extract in 25 μl of 0.2% Igepal CA-630 (Sigma-Aldrich). Each lipid level was quantified using the UPLC system. Using an experimental animal model APP/PS1 mouse for Alzheimer's disease patients, ASM concentration levels in plasma and brain tissues were measured after administration of AMI, which is the most widely used as an ASM inhibitor, and the novel ASM inhibitory compound of the Chemical Formula 2.

Experiment [2] has as its system APP/PS1 mice. Nature of the experiment: Morris water maze (MWM), learning and memory in APP/PS1 mice. It is filed as in vivo, mouse. The settings on record: 100 mg/kg/day via drinking water; for spatial memory, cognitive and memory formation disability: versus unfed APP/PS1 mice. Here is the method: To confirm the therapeutic effect of the novel ASM inhibitory compounds, the novel ASM inhibitory compound or AMI were fed via drinking water at a dose of 100 mg/kg/day to mice at 5.5 months of age. Three months after the feeding, behavioral analysis on the mice was performed, followed by sampling of mouse brain tissues (FIG. 3).
Morris water maze (MWM) and fear conditioning experiments were conducted to identify potential effects on learning and memory. For MWM, the mice were learned the task four times a day for 10 days, followed by the removal of the platform at the 11th day and subsequently a probe trial. On the first day of the fear conditioning, the mice were placed in the conditioning chamber and subjected to sound stimulation (10 kHz, 70 dB) and electrical stimulation (0.3 mA, 1s). On the second day, their memory was checked without stimulation in the same conditioning chamber as on the first day. On the third day, memory tests were conducted for fear when only sound stimulation was given in another conditioning chamber. Open field tests and dark & light tests were conducted to assess activity and anxiety. In the open field test, the mice were placed in a square box for 10 minutes to measure their overall activity and time spent wandering the wall and center. In the dark & light test, the mice were placed in a rectangular box composed of a dark box and a bright box for 10 minutes to measure the time spent in each box, the number of round trips, and the time when the mice entered the bright box for the first time.
In order to determine the potential effect of the novel ASM inhibitory compound of the present invention on learning and cognition in the animal models of Alzheimer's disease, the MWM (Morris water maze) and the fear conditioning test were performed, respectively.

With `CCCCCCCCCCCCn1cc(C(N)(CO)CO)nn1` [Chemical Formula 2, 2-amino-2-(1-dodecyl-1H-1,2,3-triazol-4-yl)propane-1,3-diol], in experiment [1], the “ASM concentration level in brain tissues” value was “remarkably low” and the “ASM concentration level in plasma” value was “remarkably low”. Also, the “ASM inhibition in plasma and brain tissues compared with AMI” value in experiment [1] (APP/PS1 mice) was “more significantly effective in inhibiting ASM activity than AMI”. Besides, in experiment [2], the “cognitive improvement compared with AMI” value is given as “more pronounced”; the “spatial memory, cognitive and memory formation disability” value is “improved”.
As to `CN(C)CCC=C1c2ccccc2CCc2ccccc21` [AMI, amitriptyline, reference compound], in experiment [1], the “ASM concentration level in brain tissues” value is “remarkably low” and the “ASM concentration level in plasma” value is given as “remarkably low”. The “spatial memory, cognitive and memory formation disability” value in experiment [2] was “improved”.
